Measured values as given in patent US11162937B2, “Patient selection method for inflammation” (Purdue Research Foundation, priority 2013, dated 2021).

Columns and labels:
[1] = test system: mice with ulcerative colitis; experiment: DSS-induced ulcerative colitis mice: ^99mTc-EC20 radioimaging of colon, clinical score and colon length under therapy; format: in vivo; conditions: for clinical scores compared to disease control mice / colon shortening compared to disease control mice: after 8 days of continuous therapy; for clinical scores or colon lengths relative to saline-treated mice / ^99mTc-EC20 uptake in colon relative to saline-treated mice: day 4 of therapy; for ^99mTc-EC20 uptake in colon relative to saline-treated mice: 150 μCi ^99mTc-EC20; for ^99mTc-EC20 radioimages compared with the earlier time point (day 4): day 8 of therapy
Description: Ulcerative colitis was induced as previously described in S. Wirtz, C. […] Nat Protoc. 2, 541-546 (2007), incorporated herein by reference. Seven week old Balb/c mice (Harlan Laboratories) maintained on a folate-deficient diet were administered 5% dextran sodium sulfate (DSS) in their drinking water. Mice were divided into treatment groups (n=10 per group). Healthy mice and disease control mice received 100 μL saline daily by oral gavage. Diseased mice were treated daily with cimetidine (100 mg/kg) or sulphasalazine (150 mg/kg) by oral gavage. Healthy mice were maintained on normal water and similarly treated with saline. Disease symptoms were assessed daily and quantitated by adding the scores from each of the following tests: Weight loss: 0=no weight loss, 1=1-5% weight loss, 2=6-10% weight loss, 3=11-15% weight loss, 4=>15% weight loss; Stool appearance: 0=normal, 1=loose feces, 2=diarrhea; Hematochezia (blood in stool): 0=no blood, 1=positive via guaiac paper, 2=visually bloody; Overall appearance: 0=normal, 1=ruffled fur/altered gait, 2=lethargic, moribund. On day 4 of therapy, half of each treatment group (n=5) received an intraperitoneal injection of ^99mTc-EC20. After 4 hours, the injected mice were euthanized and the bladder and kidneys were removed to reduce background radiation associated with ^99mTc-EC20 undergoing excretion. Mice were then imaged to assess uptake of ^99mTc-EC20 in the colon, and the colons were removed and measured with calipers to evaluate colon shortening as a measure of disease severity. On day 8, the remaining mice were injected with ^99mTc-EC20 and analyzed similarly.
(§1) ^99mTc-EC20 was prepared as previously described in C. P. Leamon, M. A. Parker, I. R. Vlahov, L. Xu, J. A. Reddy, M. Vetzel, N. Douglas, Synthesis and Biological Evaluation of EC20: A New Folate-Derived, ^99mTc-Based Radiopharmaceutical. Bioconjugate Chem. 13, 1200-1210 (2002), incorporated herein by reference. A preparation method for ^99mTc-EC20 is also described in U.S. Pat. No. 7,128,893, incorporated herein by reference. Briefly, 1 mL of 15 mCi/mL sodium pertechnetate (Cardinal Health) was added to 0.1 mg of EC20 (a gift from Endocyte, Inc.) and heated at 100° C. for 18 min. After diluting with saline, 100 μL ^99mTc-EC20 (150 μCi (˜75 nmol of EC20 per kilogram for CIA, ulcerative colitis and pulmonary fibrosis mice) or 300 μCi (˜150 nmol of EC20 per kilogram for atherosclerosis)) was injected intraperitoneally into the desired mice, and unbound ^99mTc-EC20 was allowed to clear from tissues for 4 h. Mice were then either anesthetized with 3% isoflurane (CIA, atherosclerosis, and pulmonary fibrosis mice) or euthanized (ulcerative colitis mice) prior to image acquisition using a Kodak Image Station operated with Kodak molecular imaging software (version 4.5; Carestream Molecular Imaging). Radioimages were acquired for 2 minutes using a radioisotopic phosphor screen, no illumination source, 4×4 binning, focal plane=5, FOV=160, and f-stop=0. White light images were acquired for 0.175 seconds with white light transillumination source, no binning, focal plane=5, FOV=160, and f-stop=11.
Mice (n=10/group) were administered 5% dextran sulfate sodium (DSS) in water to induce ulcerative colitis and then treated daily with cimetidine, sulphasalazine or saline (disease control). Then on day 4, half of the mice (n=5/group) were injected with 150 μCi ^99mTc-EC20 and euthanized in preparation for subsequent imaging of their colons.

[2] = test system: macrophage accumulation; experiment: Flow cytometric analysis (F480-PE) of macrophage accumulation in large intestine of ulcerative colitis mice; format: in vivo; conditions: after 4 days of treatment, F480-PE flow cytometry
Description: Ulcerative colitis was induced as described. Seven week old Balb/c mice (Harlan Laboratories) maintained on a folate-deficient diet were administered 5% dextran sodium sulfate (DSS) in their drinking water. Healthy control mice were maintained on normal water. Mice were divided into treatment groups (n=3 per group). Healthy mice and disease control mice received 100 μL saline daily by oral gavage. Diseased mice were treated daily with cimetidine (100 mg/kg) or sulphasalazine (150 mg/kg) by oral gavage. After 4 days of treatment, mice were euthanized and large intestines were removed. Equal weights of the large intestines were digested and made into single cell suspensions. Cells were included with mouse macrophage marker F480-PE and analyzed by flow cytometry.

[3] = test system: CIA mice; conditions: prior finding; cited from earlier work
[4] = test system: mice with pulmonary fibrosis; experiment: Bleomycin-induced pulmonary fibrosis mice: ^99mTc-EC20 radioimaging, BAL cell count, lung hydroxyproline, H&E; format: in vivo
Description: Pulmonary fibrosis was induced in mice as previously described in B. B. Moore, C. M. Hogaboam, Murine models of pulmonary fibrosis. Am J Physiol Lung Cell Mol Physiol. 294, L152-160 (2008), incorporated herein by reference. Briefly, 6 week old female C57BL/6 mice (Harlan Laboratories) maintained on a folate-deficient diet were anaesthetized with isoflurane, and 50 μL of bleomycin (2 U/kg body weight) dissolved in saline was intratracheally instilled into each mouse. Healthy control mice were similarly intratracheally instilled with 50 μL saline. Mice were then separated into treatment groups (n=5). […] Diseased mice were injected every day intraperitoneally with dexamethasone (0.5 mg/kg) or etanercept (300 μg). Mice were imaged with ^99mTc-EC20 after 6 days of treatment and again after 15 days of treatment. Mice were then euthanized by CO2 asphyxiation and bronchoalveolar lavage fluid was collected and cells were counted using a Beckman Coulter Z™ Series COULTER COUNTER® Cell and Particle Counter. The left lung was fixed in formalin and submitted to the Purdue Histology & Phenotyping Laboratory for H&E staining and the right lung was used for analysis of hydroxyproline content using a hydroxyproline assay kit from Sigma-Aldrich (St. Louis, Mo.).
(§2) ^99mTc-EC20 was prepared as previously described in C.
Since pulmonary fibrosis is thought to be primarily driven by M2 macrophages, C57BL/6 mice were induced to develop an acute form of lung fibrosis by intratracheal instillation of bleomycin. Immediately following disease induction, mice were treated daily with intraperitoneal injections of dexamethasone, etanercept, or saline, and then imaged with ^99mTc-EC20 six days later.

[5] = test system: CIA mice; experiment: Collagen-induced arthritis (CIA) mice: ^99mTc-EC20 radioimaging, arthritis score and paw thickness under anti-inflammatory therapy; conditions: for disease symptoms (arthritis score, paw swelling) relative to disease control / uptake of ^99mTc-EC20 in the affected appendages relative to disease control: day 3 of therapy; for uptake of ^99mTc-EC20 in the affected appendages relative to disease control: 150 μCi ^99mTc-EC20 i.p., imaged after 4 h
Description: Collagen-induced arthritis (CIA) was initiated using established methods on 6-7 week old female DBA/1 mice (Jackson Laboratories) maintained on folate-deficient diet (Harlan-Teklad). Briefly, mice were immunized at the base of the tail with 100 μg bovine type II collagen emulsified in complete Freund's adjuvant (Chondrex, Inc., Redmond, Wash., USA). Mice were then boosted 21 days later with a similar injection of 100 μg bovine type II collagen emulsified in incomplete Freund's adjuvant. After four days, onset of arthritis was synchronized in all mice with an intraperitoneal injection of 25 μg lipopolysaccharide (LPS) dissolved in saline. Three days later mice were distributed equally across control and treatment groups (n=5). Healthy mice and disease control mice received daily intraperitoneal injections of 100 μL saline. […] Arthritis scores were assessed every other day by researchers blinded to the various treatment groups, using the following scoring system: 0=normal; 1=mild, but definite redness and swelling of the ankle or wrist, or apparent redness and swelling limited to individual digits, regardless of the number of affected digits; 2=moderate redness and swelling of ankle or wrist; 3=severe redness and swelling of the entire paw including digits; 4=maximally inflamed limb with involvement of multiple joints. A total score for each mouse was calculated by summing the scores for each of the four paws, allowing a maximum possible score of 16 per animal. Paw thickness was measured with calipers every other day starting on the first day of treatment. On day 3 of treatment, mice were anesthetized with isoflurane and imaged with ^99mTc-EC20 as described below. Mice were again imaged and then euthanized by CO2 asphyxiation on day 11 of treatment.
as §1
Mice were induced to develop collagen-induced arthritis (CIA, a well-established model of rheumatoid arthritis) and subjected 28 days later to treatment with methotrexate, dexamethasone or saline (disease control). Three days after initiation of therapy, the mice were injected with 150 μCi of ^99mTc-EC20 and subjected to their first planned radioimage analysis.

[6] = test system: ApoE−/− mice; experiment: Atherosclerosis in ApoE−/− mice on high fat diet: ^99mTc-EC20 radioimaging and aortic histology under therapy; format: in vivo
Description: Five week old male ApoE−/− mice were purchased from Jackson Laboratories and placed on an adjusted calorie diet (42% from fat, Harlan Laboratories). Healthy control mice (C57BL/6) were similarly maintained on normal chow. Mice were divided into therapy groups (n=5). Healthy mice and disease control mice received 100 μL saline daily by oral gavage. Diseased mice were treated daily with valsartan (1 mg/kg), or fluvastatin (3 mg/kg) by oral gavage. After three weeks of treatment, mice were imaged with 300 μCi ^99mTc-EC20. Mice were again imaged with ^99mTc-EC20 after 12 weeks of therapy and then euthanized by CO2 asphyxiation. Aortas were dissected and H&E and oil red O staining was performed.
as §2
The ability to predict response to therapy might be most useful when applied to treatment of inflammatory/autoimmune diseases that are either intrinsically difficult to monitor or slow to respond to therapeutic intervention. Because atherosclerosis suffers from both disadvantages due to its inaccessible location and slow rate of progression, ^99mTc-EC20 was analyzed to determine if it might be effective in predicting response to therapy in a common murine model of heart disease. […] After 3 weeks of daily treatment, when no morphological symptoms of heart disease could be detected, mice were anesthetized and imaged with ^99mTc-EC20.

[7] = test system: ApoE−/− mice; conditions: prior finding; cited from earlier work

O=C(O)c1cc(/N=N/c2ccc(S(=O)(=O)Nc3ccccn3)cc2)ccc1O [sulphasalazine]
clinical scores compared to disease control mice [1]: significantly lower | colon shortening compared to disease control mice [1]: reduced colon shortening | clinical scores or colon lengths relative to saline-treated mice [1]: no significant difference | ^99mTc-EC20 uptake in colon relative to saline-treated mice [1]: significantly less | ^99mTc-EC20 radioimages compared with the earlier time point (day 4) [1]: essentially unchanged | macrophage accumulation in large intestine compared to the disease control group [2]: reduced macrophage accumulation

COc1ccc2cc([C@H](C)C(=O)O)ccc2c1 [naproxen]
efficacy in the CIA model of arthritis in mice (previously found) [3]: little efficacy

etanercept
fibrosis by H&E analysis of the lungs ([4]; day 15 of treatment): reduced fibrosis | hydroxyproline contents in resected lung tissues compared to saline-treated controls ([4]; day 15 of treatment): reduced hydroxyproline contents | total cell counts in bronchoalveolar lavage fluids compared to saline-treated controls ([4]; day 15 of treatment): decreased total cell counts | accumulation of ^99mTc-EC20 compared to saline-treated disease controls ([4]; six days of treatment): decreased accumulation | disease symptoms (arthritis score, paw swelling) relative to disease control ([5]; CIA mice): no significant difference | uptake of ^99mTc-EC20 in the affected appendages relative to disease control ([5]; CIA mice): significantly less uptake | disease symptoms / joint inflammation (arthritis score, paw thickness) relative to disease control ([5]; CIA mice, day 11 of therapy): significantly reduced inflammation

Nc1nc2ncc(CNc3ccc(C(=O)N[C@H](CCC(=O)NC[C@@H]4[NH][99Tc]56(=[O])[S]C[C@@H](C(=O)O)[N]5C(=O)[C@H](CC(=O)O)[N]6C4=O)C(=O)O)cc3)nc2c(=O)[nH]1 [^99mTc-EC20]
accumulation of ^99mTc-EC20 in inflamed appendages ([5]; CIA mice not treated with any anti-inflammatory drug, 150 μCi i.p.): exhibited the accumulation of ^99mTc-EC20 in their inflamed appendages

CCCCC(=O)N(Cc1ccc(-c2ccccc2-c2nnn[nH]2)cc1)[C@H](C(=O)O)C(C)C [valsartan]
^99mTc-EC20 uptake in chest cavities relative to saline-treated mice ([6]; after 3 weeks of daily treatment): significantly less | aortic wall thickening relative to saline-treated mice ([6]; after 12 weeks of daily therapy, H&E): significantly reduced | plaque formation in murine models of atherosclerosis (have been shown) [7]: reduce plaque formation

CN/C(=N/CCSCc1nc[nH]c1C)NC#N [cimetidine]
clinical scores compared to disease control mice [1]: significantly lower | colon shortening compared to disease control mice [1]: reduced colon shortening | clinical scores or colon lengths relative to saline-treated mice [1]: no significant difference | ^99mTc-EC20 uptake in colon relative to saline-treated mice [1]: significantly less | ^99mTc-EC20 radioimages compared with the earlier time point (day 4) [1]: essentially unchanged | macrophage accumulation in large intestine compared to the disease control group [2]: reduced macrophage accumulation

CN(Cc1cnc2nc(N)nc(N)c2n1)c1ccc(C(=O)N[C@@H](CCC(=O)O)C(=O)O)cc1 [methotrexate]
disease symptoms (arthritis score, paw swelling) relative to disease control ([5]; CIA mice): no reduction | uptake of ^99mTc-EC20 in the affected appendages relative to disease control ([5]; CIA mice): markedly less | disease symptoms / joint inflammation (arthritis score, paw thickness) relative to disease control ([5]; CIA mice, day 11 of therapy): substantially resolved | uptake of ^99mTc-EC20 (radioimages) ([5]; CIA mice, day 11 of therapy): significantly reduced uptake
